Source: PubChem BioAssay AID504685 (Sanford-Burnham Center for Chemical Genomics, 2011)
Active and inactive are the calls of the source. No rule for the calls is given here.

Target: Bcl-2-related protein A1 (Mus musculus) (UniProt Q07440)
Test: off-target activity on mouse Bfl-1 – biochemical, counter-screen for UBC13 polyubiquitination inhibitor project, SAR follow-up (AID 504685)
Details: Bfl-1 counterscreen for UBC13 inhibitors

IC50	SMILES
> 100 µM (inactive)	CCOC(=O)c1c(NC(=O)COc2ccccc2C#N)sc2c1CC(C)(C)NC2(C)C
> 100 µM (inactive)	O=C(NCCCN1CCCCC1)C1CCN(c2ncnc3c2nc2n3CCCCC2)CC1
79.4 µM	COc1ccc2sc(N(CCCN(C)C)C(=O)c3ccc(S(=O)(=O)N(C)Cc4ccccc4)cc3)nc2c1
> 100 µM (inactive)	Cc1ccc2nc(N(CCCN(C)C)C(=O)c3ccc(S(=O)(=O)N4CCc5ccccc5C4)cc3)sc2c1
> 100 µM (inactive)	Cc1nc2ccccc2c(=O)n1NC(=O)c1ccc(OC(F)F)cc1
> 100 µM (inactive)	O=C(CCCn1c(=O)c2ccccc2n(Cc2cccc([N+](=O)[O-])c2)c1=O)NC1CCN(Cc2ccccc2)CC1
> 100 µM (inactive)	O=C1c2cccc3cccc(c23)C(=O)N1CCN1CCN(CC(O)COCc2ccc(Cl)cc2)CC1 (stereo not given)
> 100 µM (inactive)	Cc1ccc(C)c(OCC(O)CN2CCN(CCN3C(=O)c4cccc5cccc(c45)C3=O)CC2)c1 (stereo not given)
> 100 µM (inactive)	CC(NC(=O)CCCCCN1C(=O)c2cccc([N+](=O)[O-])c2C1=O)c1ccccc1 (stereo not given)
55.3 µM	COc1cc(/C=C/c2cc[n+](C)cc2)ccc1OCC(=O)Nc1ccc(Cl)c(Cl)c1
> 100 µM (inactive)	O=C(CCCCCN1C(=O)c2cccc3cccc(c23)C1=O)NCCO
96.2 µM	O=C1c2cccc3cccc(c23)C(=O)N1CC1CCN(CC(O)COCc2ccc3c(c2)OCO3)CC1 (stereo not given)
> 100 µM (inactive)	O=C(CCCCCN1C(=O)c2ccccc2C1=O)Nc1nc(C2CC2)cs1
> 100 µM (inactive)	O=C(CCCCn1c(=O)c2ccccc2n(Cc2ccccc2)c1=O)NC1CCN(Cc2ccccc2)CC1
> 100 µM (inactive)	Cc1cc(NS(=O)(=O)c2ccc(NC(=O)CCCCCN3C(=O)c4ccccc4C3=O)cc2)nc(C)n1
> 100 µM (inactive)	COc1ccccc1NC(=S)NC(=O)CCCCCN1C(=O)c2ccccc2C1=O
> 100 µM (inactive)	COc1ccc(NC(=O)CCCCCN2C(=O)c3cccc([N+](=O)[O-])c3C2=O)cc1
> 100 µM (inactive)	CC(=O)Nc1ccc(OCC(O)CN2CCN(CCN3C(=O)c4cccc5cccc(c45)C3=O)CC2)cc1 (stereo not given)
> 100 µM (inactive)	Cc1cc(C)cc(OCCNC(=O)CCCCCN2C(=O)c3ccccc3C2=O)c1
> 100 µM (inactive)	O=C1c2cccc3cccc(c23)C(=O)N1CCN1CCN(CC(O)COc2ccc(C3CCCCC3)cc2)CC1 (stereo not given)

IC50	SMILES
93.1 µM	CC(=O)c1ccccc1OCC(O)CN1CCN(CCN2C(=O)c3cccc4cccc(c34)C2=O)CC1 (stereo not given)
> 100 µM (inactive)	CCOc1cccc2sc(N(CCCN(C)C)C(=O)c3ccc(S(=O)(=O)N(C)Cc4ccccc4)cc3)nc12
86.6 µM	CCOc1cccc2sc(N(CCCN(C)C)C(=O)c3ccc(S(=O)(=O)N(CC)Cc4ccccc4)cc3)nc12
> 100 µM (inactive)	Cc1ccccc1NC(=S)NC(=O)CCCCCN1C(=O)c2ccccc2C1=O
> 100 µM (inactive)	CCOc1cccc2sc(N(CCCN(C)C)C(=O)c3ccc(S(=O)(=O)N4CCc5ccccc5C4)cc3)nc12
> 100 µM (inactive)	COc1cccc(NC(=O)CCCCCN2C(=O)c3cccc([N+](=O)[O-])c3C2=O)c1
> 100 µM (inactive)	Cc1ccc(NC(=O)C2CCN(c3ncnc4c3nc3n4CCCCC3)CC2)cc1Cl
57 µM	CCN(Cc1ccccc1)S(=O)(=O)c1ccc(C(=O)N(CCCN(C)C)c2nc3cc4c(cc3s2)OCO4)cc1
> 100 µM (inactive)	COc1ccc(COCC(O)CN2CCC(CN3C(=O)c4cccc5cccc(c45)C3=O)CC2)cc1OC (stereo not given)
> 100 µM (inactive)	NNC(=O)c1ccc(CN2C(=O)c3cccc4cccc2c34)cc1
> 100 µM (inactive)	O=C(CCCn1c(=O)c2ccccc2n(Cc2ccccc2F)c1=O)NC1CCN(Cc2ccccc2)CC1
> 100 µM (inactive)	O=C(CCCCCN1C(=O)c2ccccc2C1=O)N1CCN(c2ccc([N+](=O)[O-])cc2)CC1
> 100 µM (inactive)	CCOc1ccc2nc(N(CCCN(C)C)C(=O)c3ccc(S(=O)(=O)N4CCc5ccccc5C4)cc3)sc2c1
> 100 µM (inactive)	Cc1cc(C)c2sc(N(CCCN(C)C)C(=O)c3ccc(S(=O)(=O)N(C)C4CCCCC4)cc3)nc2c1
> 100 µM (inactive)	COc1cccc(OCC(O)CN2CCN(CCN3C(=O)c4cccc5cccc(c45)C3=O)CC2)c1 (stereo not given)
> 100 µM (inactive)	CN(C)CCCN(C(=O)c1ccc(C(=O)c2ccccc2)cc1)c1nc2cc3c(cc2s1)OCO3
> 100 µM (inactive)	Cc1ccc(C)c(CN2CCC(CNC(=O)C3CCCN(c4ncnc5c4nc4n5CCCCC4)C3)CC2)c1 (stereo not given)
> 100 µM (inactive)	CCCCOC(=O)c1cccc(NC(=O)CCCCCN2C(=O)c3ccccc3C2=O)c1
> 100 µM (inactive)	CN(CCNC(=O)C1CCN(c2ncnc3c2nc2n3CCCCC2)CC1)Cc1ccccc1
56.9 µM	COC(=O)c1ccc(OCC(O)CN2CCN(CCN3C(=O)c4cccc5cccc(c45)C3=O)CC2)cc1 (stereo not given)

IC50	SMILES
> 100 µM (inactive)	CN1CCN(CCCNC(=O)c2ccc(/C=C3\Oc4ccccc4N(Cc4ccc(Cl)cc4)C3=O)cc2)CC1
> 100 µM (inactive)	O=C(NCC1CCN(Cc2ccccc2F)CC1)C1CCCN(c2ncnc3c2nc2n3CCCCC2)C1 (stereo not given)
12 µM	COc1ccc(OC)c2sc(N(CCCN(C)C)C(=O)c3ccc(S(=O)(=O)N4CCc5ccccc5C4)cc3)nc12
> 100 µM (inactive)	CCCCN(CC)S(=O)(=O)c1ccc(C(=O)N(CCCN(C)C)c2nc3cc(C)cc(C)c3s2)cc1
> 100 µM (inactive)	CCc1ccc2nc(N(CCCN(C)C)C(=O)c3ccc(S(=O)(=O)N4CCc5ccccc5C4)cc3)sc2c1
> 100 µM (inactive)	CN(C)CCCN(C(=O)c1ccc2c(c1)CCCC2)c1nc2ccc(Cl)cc2s1
> 100 µM (inactive)	CC(C)(C)c1ccc(OCC(O)CN2CCN(CCN3C(=O)c4cccc5cccc(c45)C3=O)CC2)cc1 (stereo not given)
> 100 µM (inactive)	O=C(CCCCCN1C(=O)c2ccccc2C1=O)NCc1ccccn1
> 100 µM (inactive)	O=C(CCCn1c(=O)c2ccccc2n(Cc2cccc(F)c2)c1=O)NC1CCN(Cc2ccccc2)CC1
> 100 µM (inactive)	CN(C)CCCN(C(=O)c1ccc(S(=O)(=O)N2CCCCC2)cc1)c1nc2cc3c(cc2s1)OCO3
> 100 µM (inactive)	O=C(CCCCCN1C(=O)c2ccccc2C1=O)Nc1ccc(S(=O)(=O)N2CCCCC2)cc1
16.9 µM	CN(C)CCCn1c(SCC(=O)Nc2nc(-c3cccc(Br)c3)cs2)nc2ccccc2c1=O
> 100 µM (inactive)	O=C(C1CCN(c2ncnc3c2nc2n3CCCCC2)CC1)N1CCC(Cc2ccccc2)CC1
> 100 µM (inactive)	O=C(C1CCN(c2ncnc3c2nc2n3CCCCC2)CC1)N1CCN(c2ccccc2)CC1
> 100 µM (inactive)	COc1ccc(CCNC(=O)CCCCCN2C(=O)c3ccccc3C2=O)cc1OC
> 100 µM (inactive)	CN(C)CCCN(C(=O)c1ccc(S(=O)(=O)N2CCCCCC2)cc1)c1nc2cc3c(cc2s1)OCCO3
24.1 µM	COc1cccc2sc(N(CCCN(C)C)C(=O)c3ccc(S(=O)(=O)N4CCc5ccccc5C4)cc3)nc12
> 100 µM (inactive)	O=C1c2cccc3cccc(c23)N1Cc1ccc(F)cc1
> 100 µM (inactive)	COc1ccc(C(=O)Nn2c(C)nc3ccccc3c2=O)cc1
> 100 µM (inactive)	O=C(C1CCN(c2ncnc3c2nc2n3CCCCC2)CC1)N1CCOCC1
